Data as given in article PMC9960274, “Peptidic Inhibitors and a Fluorescent Probe for the Selective Inhibition and Labelling of Factor XIIIa Transglutaminase” (Molecules, 2023).
Entries after “also recorded” stand apart in the source; their conditions may differ. Read-outs that look alike come from different tables or passages of the source. Starred links: 1 amine or outer side, 2 acyl side, 3 side chain; linkers in the order of their positions; H or OH if unused. Non-standard residues stand in square brackets, D forms with d. Residues, ends and D or L forms follow the SMILES beside them. *: point of attachment. RhodamineB = CCN(CC)c1ccc2c(-c3ccccc3C(=O)*)c3ccc(=[N+](CC)CC)cc-3oc2c1; X1 = COC(=O)/C=C/CC[C@H](N[*:1])C(=O)[*:2]; X2 = COC(=O)C=CCCC[C@H](N[*:1])C(=O)[*:2]; X3 = COC(=O)C=CC[C@H](N[*:1])C(=O)[*:2]; Nle = CCCC[C@H](N)C(=O)O; Orn = NCCC[C@H](N)C(=O)O; Dab = NCC[C@H](N)C(=O)O; Acryloyl = C=CC(=O)*; Ahx = NCCCCCC(=O)O

Target: T1, Thrombin-activated human FXIIIa (Homo sapiens, UniProt P00488)
T1 construct: purchased Zedira GmbH T070
T1 sequence (P00488 39-732 limits assumed): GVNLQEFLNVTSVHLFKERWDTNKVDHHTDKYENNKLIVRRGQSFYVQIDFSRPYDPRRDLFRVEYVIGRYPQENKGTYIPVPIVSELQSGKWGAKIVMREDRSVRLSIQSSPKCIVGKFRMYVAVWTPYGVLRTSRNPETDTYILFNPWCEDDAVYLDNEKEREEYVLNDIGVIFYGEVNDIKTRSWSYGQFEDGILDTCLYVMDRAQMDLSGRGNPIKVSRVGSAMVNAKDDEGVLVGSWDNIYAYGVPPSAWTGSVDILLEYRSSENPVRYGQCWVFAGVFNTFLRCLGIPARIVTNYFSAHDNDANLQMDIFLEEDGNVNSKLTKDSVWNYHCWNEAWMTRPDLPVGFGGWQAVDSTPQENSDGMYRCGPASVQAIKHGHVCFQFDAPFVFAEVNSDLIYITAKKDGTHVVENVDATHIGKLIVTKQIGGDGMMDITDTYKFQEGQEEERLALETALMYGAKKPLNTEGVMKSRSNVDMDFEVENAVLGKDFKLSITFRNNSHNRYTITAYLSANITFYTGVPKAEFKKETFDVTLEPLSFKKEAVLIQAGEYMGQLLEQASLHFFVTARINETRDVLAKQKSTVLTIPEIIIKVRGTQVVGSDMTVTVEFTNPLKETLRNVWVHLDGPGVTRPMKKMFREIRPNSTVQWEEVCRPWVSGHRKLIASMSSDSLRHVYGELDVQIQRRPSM
Assay: Fluorescence-quenched A101 isopeptidase assay of FXIIIa inhibition kinetics
Type: biochemical
Conditions: for FXIIIa Inh. Mode: Rev = reversible, Irrev = irreversible, None = no inhibition detected up to 200 μM; for Selectivity: isozyme favoured, FXIIIa vs TG2, FXIIIa as the favoured isozyme; for selectivity for FXIIIa over TG2: from kinact/KI against FXIIIa and TG2
Procedure: All inhibitors synthesised herein were evaluated for inhibition against FXIIIa, using the fluorescence-quenched A101 isopeptidase assay, and against TG2, using the colorimetric AL5 transamidase assay. The assay substrates A101 and AL5 both present labile bonds that are cleaved by the activities of their corresponding transglutaminases, resulting in the release of a fluorophore or chromophore moiety, respectively. The rate of consumption of these assay substrates, indicated by increases in fluorescence or absorbance over time, can be detected for measuring enzyme activity. Assays were run in duplicate at constant reporter substrate concentration with varying concentrations of inhibitor. The type of inhibition was determined through visual inspection of the fluorescence-time curvature; termination of the enzymatic reaction with the substrate at a plateau lower than the no-inhibitor positive control is indicative of irreversible inhibition. On the other hand, convergence to a common plateau indicates reversible inhibition.
Irreversibility was tested further through substrate spike experiments. As shown in Supplementary Materials Figures S1–S3, an additional substrate was added to inhibited and uninhibited enzyme reactions after the completion of the positive control reaction. […] Analysis was carried out through corrected Dixon modelling in the case of reversible kinetics, to obtain Ki values (Figure 5B), and hyperbolic saturation modelling was used to obtain kinact and KI for inhibitors showing irreversibility (Figure 5E). For cases in which the tested inhibitor concentrations were not high enough to reach saturation, a linear regression provided an estimate of the inhibitor’s kinact/KI ratio (Figure 5D). Further details concerning data collection and analysis are provided in the Materials and Methods section.
A previously reported fluorescence-quenched isopeptidase assay using the commercially available substrate A101 (Zedira GmbH, Darmstadt, Germany) was employed for the determination of FXIIIa inhibition kinetics. All assays were performed at 37 °C on 96-well plates, with fluorescence (excitation at 313 nm, emission at 418 nm) measured continuously using a BioTek Synergy 4 plate reader. For each inhibitor, duplicate trials were run in parallel at 4 inhibitor concentrations, along with duplicate positive controls (no inhibitor) and negative controls (no enzyme and no inhibitor). First, 125 μL of aqueous buffer 1 (111 mM Tris, 16.7 mM CaCl2, 333 mM NaCl, pH 7.5) and 18 μL of aqueous buffer 2 (55.6 mM TCEP, 149 mM H-Gly-OMe, pH 7.5) were added to each well, along with 5 μL of A101 stock solution (4000 μM in DMSO). Next, the appropriate amount of the desired inhibitor, dissolved in DMSO, was added, in addition to the amount of distilled water necessary to reach a total volume of 180 μL in each well. Negative controls were diluted to a final volume of 200 μL. Thrombin-activated human FXIIIa (T070, Zedira GmbH, Darmstadt, Germany), stored at −80 °C in 20-μL aliquots (1 mg/mL enzyme) of storage buffer (50.0 mM Tris, 1.00 mM TCEP, 150 mM NaCl, pH 7.5) was warmed to room temperature and diluted to 0.0741 mg/mL through the addition of 250 μL of storage buffer. The diluted enzyme solution was then aliquoted into 10 separate PCR tubes. The assay plate and enzyme tubes were subsequently incubated at 37 °C for 10 min. After the completion of the incubation period, 20 μL of diluted FXIIIa solution was added from each PCR tube to all wells in the plate excluding the negative controls using a multi-channel pipette. This produced a final volume of 200 μL per well, with final reaction conditions of pH 7.5, 74.4 mM Tris, 10.4 mM CaCl2, 223 mM NaCl, 5.10 mM TCEP, 13.4 mM H-Gly-OMe, 100 μM A101, and 7.41 μg/mL (94 nM) FXIIIa. The range of inhibitor concentrations tested spanned from 1 to 200 μM, and the final DMSO concentration in the reaction mixture was kept below 10% v/v. […]

[1] = peptidic series, corrected Dixon plot, α = 13.5, read-out: FXIIIa Ki or KI: Ki of reversible inhibitors
[2] = small molecule series, reversible, Dixon plot, Interference = data afflicted by fluorescence interference, read-out: FXIIIa Ki
[3] = small molecule series, reversible, Dixon plot, Interference = data afflicted by fluorescence interference
[4] = dansyl and sulfonyl-naphthalene compounds, data afflicted by fluorescence interference and set aside, read-out: FXIIIa apparent Ki (interference)

Compound: C=CC(=O)NCC[C@H](NC(=O)[C@@H](CC(=O)O)NC(C)=O)C(=O)N[C@@H](CCCC)C(=O)N[C@@H](CCCC)C(=O)N[C@@H](CC(C)C)C(=O)N1CCC[C@H]1C(=O)N[C@@H](Cc1c[nH]c2ccccc12)C(=O)N1CCC[C@H]1C(=O)O [Compound 12, Ac-D-Asp-Dab(Acrylamide)-Nle-Nle-Leu-Pro-Trp-Pro-OH] (Ac-[dD][Dab](Acryloyl)[Nle][Nle]LPWP-OH)
- FXIIIa Inh. Mode: Rev
- Selectivity: FXIIIa
- Ki [1]: 193 ± 20 µM

Compound: COC(=O)C=CCCC(NC(=O)c1ccccc1C(=O)O)C(=O)N1CCN(C(=O)c2cccc3ccccc23)CC1 (centres unmarked) [Compound 88]
- Ki [2]: 265 ± 46.8 µM

Compound: C=CC(=O)NCC(NC(=O)CCC(=O)O)C(=O)N1CCN(S(=O)(=O)c2cccc3c(N(C)C)cccc23)CC1 [Compound 75, Succinyl-L-Dap(Acryl)-Piperazine-Dansyl]
- FXIIIa Ki [3]: Interference *

Compound: C=CC(=O)NCC(NC(=O)CC(=O)O)C(=O)N1CCN(S(=O)(=O)c2cccc3c(N(C)C)cccc23)CC1 (centres unmarked) [Compound 71]
- FXIIIa Ki [3]: Interference *

Compound: CCCC[C@H](NC(=O)[C@H](CC=CC(=O)OC)NC(=O)[C@@H](CC(=O)O)NC(C)=O)C(=O)N[C@@H](CCCC)C(=O)N[C@@H](CC(C)C)C(=O)N1CCC[C@H]1C(=O)N[C@@H](Cc1c[nH]c2ccccc12)C(=O)N1CCC[C@H]1C(=O)O [Compound 45] (Ac-[dD][X3][Nle][Nle]LPWP-OH)
- FXIIIa Inh. Mode: weak reversible inhibition and Rev
- Selectivity: FXIIIa
- Ki [1]: 53 ± 12 µM

Compound: CCCC[C@H](NC(=O)[C@H](CC/C=C/C(=O)OC)NC(=O)[C@@H](CC(=O)O)NC(=O)CCCCCNC(=O)[C@@H]1CCCN1C(=O)c1ccccc1-c1c2ccc(=[N+](CC)CC)cc-2oc2cc(N(CC)CC)ccc12)C(=O)N[C@@H](CCCC)C(=O)N[C@@H](CC(C)C)C(=O)N1CCC[C@H]1C(=O)N[C@@H](Cc1c[nH]c2ccccc12)C(=O)N1CCC[C@H]1C(=O)O [Compound 93] (RhodamineB-P[Ahx][dD][X1][Nle][Nle]LPWP-OH)
- selectivity for FXIIIa over TG2: around 6.5 fold
- selectivity for FXIIIa over TG2 (listed as KM93): 6.5 fold
- kinact/KI (irreversible inhibitors, saturation fit or linear regression): 2120 M⁻¹ s⁻¹

Compound: CCCC[C@H](NC(=O)[C@H](CCCC=CC(=O)OC)NC(=O)[C@@H](CC(=O)O)NC(C)=O)C(=O)N[C@@H](CCCC)C(=O)N[C@@H](CC(C)C)C(=O)N1CCC[C@H]1C(=O)N[C@@H](Cc1c[nH]c2ccccc12)C(=O)N1CCC[C@H]1C(=O)O [Compound 47] (Ac-[dD][X2][Nle][Nle]LPWP-OH)
- FXIIIa Inh. Mode: reversible and highly potent reversible FXIIIa inhibition and Rev
- Selectivity: Irrev TG2
- Ki [1]: 0.0941 ± 0.0105 µM

Compound: C=CC(=O)NCC(NS(=O)(=O)CC(=O)O)C(=O)N1CCN(S(=O)(=O)c2cccc3c(N(C)C)cccc23)CC1 (centres unmarked) [Compound 79]
- Ki [4]: 26.7 ± 1.3 µM
- FXIIIa Ki [3]: Interference *

Compound: C=CC(=O)NCCCC[C@H](NC(=O)[C@@H](CC(=O)O)NC(C)=O)C(=O)N[C@@H](CCCC)C(=O)N[C@@H](CCCC)C(=O)N[C@@H](CC(C)C)C(=O)N1CCC[C@H]1C(=O)N[C@@H](Cc1c[nH]c2ccccc12)C(=O)N1CCC[C@H]1C(=O)O [Compound 14] (Ac-[dD]K(Acryloyl)[Nle][Nle]LPWP-OH)
- FXIIIa Inh. Mode: Rev
- Selectivity: FXIIIa
- Ki [1]: 125 ± 20 µM

Compound: C=CC(=O)NCC(NC(=O)CCC(=O)O)C(=O)N1CCN(S(=O)(=O)c2cccc3ccccc23)CC1 [Compound 76, Succinyl-L-Dap(Acryl)-Piperazine-Sulfonyl-Naphthalene]
- Ki [4]: 64.3 ± 5.1 µM
- FXIIIa Ki [3]: Interference *

Compound: C=CC(=O)NCC(NC(=O)CCC(=O)O)C(=O)N1CCN(C(=O)c2cccc3ccccc23)CC1 [Compound 77, Succinyl-L-Dap(Acryl)-Piperazine-Naphthoyl]
- Ki [2]: 69 ± 4.1 µM

Compound: COC(=O)C=CCCC(NC(=O)CCC(=O)O)C(=O)N1CCN(C(=O)c2cccc3ccccc23)CC1 (centres unmarked) [Compound 87]
- Ki [2]: 131 µM

Compound: Ac-D-Asp-Dap(Acrylamide)-Nle-Nle-Leu-Pro-Trp-Pro-OH [Compound 11]
- FXIIIa Inh. Mode: complete loss of inhibition; also recorded: no inhibition; also recorded: None *

Compound: C=CC(=O)NCCC[C@H](NC(=O)[C@@H](CC(=O)O)NC(C)=O)C(=O)N[C@@H](CCCC)C(=O)N[C@@H](CCCC)C(=O)N[C@@H](CC(C)C)C(=O)N1CCC[C@H]1C(=O)N[C@@H](Cc1c[nH]c2ccccc12)C(=O)N1CCC[C@H]1C(=O)O [Compound 13] (Ac-[dD][Orn](Acryloyl)[Nle][Nle]LPWP-OH)
- FXIIIa Inh. Mode: Rev
- Selectivity: FXIIIa
- Ki [1]: 135 ± 16 µM

Compound: C=CC(=O)NCC(NC(=O)C1(C(=O)OC)CC1)C(=O)N1CCN(S(=O)(=O)c2cccc3c(N(C)C)cccc23)CC1 (centres unmarked) [Compound 73]
- FXIIIa Ki [3]: Interference *

Compound: C=CC(=O)NCC(NC(=O)C1(C(=O)O)CC1)C(=O)N1CCN(S(=O)(=O)c2cccc3c(N(C)C)cccc23)CC1 [Compound 74, Acid-Cyclopropyl-L-Dap(Acryl)-Piperazine-Dansyl]
- FXIIIa Ki [3]: Interference *

Compound: C=CC(=O)NC(CNC(=O)CCC(=O)O)C(=O)N1CCN(C(=O)c2cccc3ccccc23)CC1 (centres unmarked) [Compound 84]
- Ki [2]: 108 ± 19.1 µM

Compound: C=CC(=O)NCC(NC(=O)CC(=O)O)C(=O)N1CCN(C(=O)c2cccc3ccccc23)CC1 (centres unmarked) [Compound 72]
- Ki [2]: 249 ± 69.3 µM
